This note sets out measurements from patent publication US20230241178A1, “LONG ACTING GLP-1/GIP DUAL AGONISTS” (SUN PHARMACEUTICAL INDUSTRIES LIMITED, priority 2020, published 2023).

Marks after values point to notes of the source that are not given here. Numbered stars: 1 amine (or outer) side, 2 acyl side, 3 side chain; on linkers, the order of the positions; unused ones are H or OH. Square brackets hold non-standard residues; d marks the D form. Primed or numbered codes have the meaning given here. Ends that are not written are not given here. dSer(OMe) = COC[C@@H](N[*:1])C(=O)[*:2]; Moiety B″ = not defined here; Aib = CC(C)(N)C(=O)O

The subject of test [1] is type 2 diabetic mouse (db/db) model. Description: Effect on blood glucose, food intake and body weight, single s.c. dose 10 nM/kg, db/db mice (Tables 8, 9). The test is classed as in vivo. As to conditions: 10 nM/kg/s.c/single dose. How it is done: This study was performed in a type 2 diabetic mouse (db/db) model. […] Baseline blood glucose was measured from all the animals. All the animals were administered with test items subcutaneously. Blood glucose was measured at 4 hr, 12 hr, 24 hr, 48 hr, 72 hr and 96 hr post treatment. Delta blood glucose (mM) was calculated. Body weight changes and cumulative food consumption was measured at 96 hr post treatment. Similarly the effect of Compounds 11-15 on blood glucose, food intake and body weight was studied in a separate study except for Compound 13. The results are shown in Table 8 (effect on blood glucose) and Table 9 (effect on body weight and food consumption).

The test system is the same in test [2]. Description: Reduction of HbA1c in db/db type 2 diabetic mice after chronic treatment (HbA1c, insulin, triglycerides, food consumption, body weight). It is filed as in vivo. As to conditions: for Cumulative Food Consumption Day 0-28 / Insulin / Triglycerides / Δ% HbA1c vs. DC / Body Weight (%) Day 28 vs. Baseline: db/db mice. The protocol: This study was performed in a type 2 diabetic mouse (db/db) model. […] All the treatments were injected subcutaneously every third day for 10 doses (q3d*10). % HbA1c, Insulin, Triglycerides levels were measured on Day 0, day 14 and day 28. Cumulative food intake from day 0-28 and % Change in body weight compared to day 0 was calculated on day 28.

Test [3] has the same test system. Description: Reduction in blood glucose and effect on body weight and food intake, single dose, db/db mice (Tables 4, 5). It is filed as in vivo. To be noted: for Delta Blood Glucose (mM), Mean: @ 3 nM s.c. How it is done:
The effect of Compounds of present invention on blood glucose was studied on mice. This study was performed in a type 2 diabetic mouse (db/db) model. […] Baseline blood glucose was measured from all the animals. All animals were administered with its respective test item subcutaneously. […] Delta blood glucose (mM) was calculated. Similarly body weight changes and cumulative food consumption was measured at 96 hr post treatment.

The test system is the same in test [4]. Description: Effect of Compound 2 and 7 on blood glucose, body weight and food consumption in mice, up to 72 hr (Tables 6, 7). The test is classed as in vivo. As to conditions: 90 nM/kg; mice, n = 8. How it is done: Similarly body weight changes and cumulative food consumption was measured at 72 hr post treatment.
Test [5] has as its target T1, GIP-receptor (GIPR) (UniProt P48546 22-466, limits assumed).
T1 sequence (looked up): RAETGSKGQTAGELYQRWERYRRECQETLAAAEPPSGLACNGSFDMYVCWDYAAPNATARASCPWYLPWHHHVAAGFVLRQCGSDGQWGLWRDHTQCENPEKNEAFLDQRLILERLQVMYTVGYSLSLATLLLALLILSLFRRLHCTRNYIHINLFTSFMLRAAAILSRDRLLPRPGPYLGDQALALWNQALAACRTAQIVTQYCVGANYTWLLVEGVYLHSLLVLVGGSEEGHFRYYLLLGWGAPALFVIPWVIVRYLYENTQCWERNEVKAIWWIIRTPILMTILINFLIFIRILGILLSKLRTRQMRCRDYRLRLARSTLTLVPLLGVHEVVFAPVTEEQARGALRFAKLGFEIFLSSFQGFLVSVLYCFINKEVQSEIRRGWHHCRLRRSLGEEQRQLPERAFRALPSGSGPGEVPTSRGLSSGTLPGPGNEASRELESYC
Description: cell-based or functional assay.

The target of test [6] is glucagon-like peptide-1 receptor (GLP-1R) (UniProt P43220 24-463, limits assumed). Description: cell-based or functional assay.
The mark [7] stands for this setting: 59 nM/kg s.c., separate study n = 5.

For the molecule “Compound 16: Seq ID: 11 polypeptide, Lys acylated with Moiety D (YXEGTFTSDYSIXLDKIAQKAFVQWLIAGGPSSGAPPPSR; (2)..(2) Xaa = Aib (2-Aminoisobutyric acid); (13)..(13) Xaa = Aib (2-Aminoisobutyric acid); (20)..(20) Side chain amino (Epsilon amino) group of Lys is substituted)”, the “Delta Blood Glucose (mM), Mean” value is reported as 0.0 mM in test [1] (0 hr (baseline)); −14.4*** mM in test [1] (4 hr post treatment); −12.1*** mM in test [1] (12 hr post treatment); −10.8*** mM in test [1] (24 hr post treatment); −4.9** mM in test [1] (48 hr post treatment); 0.8 mM in test [1] (72 hr post treatment). For the same molecule, the “Delta Blood Glucose (mM), Mean” value in test [1] (96 hr post treatment) is given as 0.7* mM.
For the molecule Tirzepatide [reference compound], the “improvement in HbA1c reduction from day 14 to day 28 (in words)” value in test [2] (180 nM/kg dose) was “minimal improvement in HbA1c reduction”. Also, in test [2] (90 nM/kg s.c. q3d*10), the “Cumulative Food Consumption Day 0-28” value stood at 119.1. Moreover, the “Cumulative Food Consumption Day 0-28” value in test [2] (180 nM/kg s.c. q3d*10) stood at 90.1. Moreover, in test [2] (Day 14, 90 nM/kg s.c. q3d*10), the Insulin was determined as 65.23 ng/mL, the Triglycerides is reported as 168.7 mg/dL and the “Δ% HbA1c vs. DC” value is −2.63*** %. Further, in test [2] (Day 14, 180 nM/kg s.c. q3d*10), the Insulin is 71.77 ng/mL, the Triglycerides was found to be 143.4 mg/dL and the “Δ% HbA1c vs. DC” value is listed as −3.50*** %. Further, in test [2] (Day 28, 90 nM/kg s.c. q3d*10), the “Body Weight (%) Day 28 vs. Baseline” value is given as −0.9%, the Insulin amounted to 52.32 ng/mL, the Triglycerides was 167.4 mg/dL and the “Δ% HbA1c vs. DC” value is −3.43*** %. Also, in test [2] (Day 28, 180 nM/kg s.c. q3d*10), the “Body Weight (%) Day 28 vs. Baseline” value is listed as −6.8%, the Insulin is 60.19 ng/mL, the Triglycerides turned out to be 141.3 mg/dL and the “Δ% HbA1c vs. DC” value was −3.74*** %. Besides, in test [3] (10 nM/kg s.c., n = 6 study), the “Cumulative Food Intake (g) 0-96 hr, Mean” value is 13.3*** g and the “Body Weight Change (%) 96 hr., Mean” value was −3.4*** %. Besides, in test [3] (setting [7]), the “Cumulative Food Intake (g) 0-96 hr, Mean” value turned out to be 15.9 g and the “Body Weight Change (%) 96 hr., Mean” value was −2.8** %. In test [4], the “% Body wt. change 72 hr. vs. 0 hr., Mean” value was −6.7*** % and the “Cumulative Food Consumption (0-72 hr) (g), Mean” value was 8.1** g.
As for “Compound 11: Seq ID: 11 polypeptide, Lys acylated with Moiety B (YXEGTFTSDYSIXLDKIAQKAFVQWLIAGGPSSGAPPPSR; (2)..(2) Xaa = Aib (2-Aminoisobutyric acid); (13)..(13) Xaa = Aib (2-Aminoisobutyric acid); (20)..(20) Side chain amino (Epsilon amino) group of Lys is substituted)”, the “Delta Blood Glucose (mM), Mean” value in test [1] (0 hr (baseline)) is reported as 0.0 mM; in test [1] (4 hr post treatment) it was −10.5*** mM; in test [1] (12 hr post treatment) it was −11.2*** mM; in test [1] (24 hr post treatment) it was −14.6*** mM; in test [1] (48 hr post treatment), −6.4*** mM; in test [1] (72 hr post treatment) it was −2.9*** mM. Also, the “Delta Blood Glucose (mM), Mean” value in test [1] (96 hr post treatment) came to 1.1 mM. The “Body Wt. Change (%) 96 hr. vs. Baseline, Mean” value in test [1] is given as −4.5*** %. Further, the “Cumulative food Intake (g) 96 hr. vs. Baseline, Mean” value in test [1] is on record as 14.1*** g. Moreover, the “blood glucose reduction post treatment (in words)” value in test [1] is on record as “statistically significant blood glucose reduction”.
With “Compound 3: Seq ID: 06 polypeptide, Lys acylated with Moiety B (Y[dSer(OMe)]EGTFTSDYSI[Aib]LDKIAQK(Moiety B″)AFVQWLIAGGPSSGAPPPS-NH2; reading uncertain)”, the “Cumulative Food Intake (g) 0-96 hr, Mean” value in test [3] (3 nM/kg s.c., n = 6 study) is on record as 21.9 g. For the same molecule, the “Body Weight Change (%) 96 hr., Mean” value in test [3] (3 nM/kg s.c., n = 6 study) was −2.5*** %. Besides, the “Delta Blood Glucose (mM), Mean” value in test [3] (4 hr post treatment, n = 6 study) was -9.2 mM; in test [3] (12 hr post treatment, n = 6 study), -2.9 mM; in test [3] (24 hr post treatment, n = 6 study), 1.6 mM; in test [3] (48 hr post treatment, n = 6 study), 0.7 mM; in test [3] (72 hr post treatment, n = 6 study), 2 mM; in test [3] (96 hr post treatment, n = 6 study) it was 2.1 mM.
On to “Compound 12: Seq ID: 11 polypeptide, Lys acylated with Moiety C (YXEGTFTSDYSIXLDKIAQKAFVQWLIAGGPSSGAPPPSR; (2)..(2) Xaa = Aib (2-Aminoisobutyric acid); (13)..(13) Xaa = Aib (2-Aminoisobutyric acid); (20)..(20) Side chain amino (Epsilon amino) group of Lys is substituted)”, for which the “Delta Blood Glucose (mM), Mean” value in test [1] (0 hr (baseline)) is 0.0 mM; in test [1] (4 hr post treatment), −14.2*** mM; in test [1] (12 hr post treatment), −13.0*** mM; in test [1] (24 hr post treatment) it was −8.0*** mM; in test [1] (48 hr post treatment), −5.5* mM; in test [1] (72 hr post treatment), -2.9 mM. In addition, the “Delta Blood Glucose (mM), Mean” value in test [1] (96 hr post treatment) is on record as 1.7 mM. For the same molecule, the “Body Wt. Change (%) 96 hr. vs. Baseline, Mean” value in test [1] is given as −3.1** %. Further, the “Cumulative food Intake (g) 96 hr. vs. Baseline, Mean” value in test [1] was 15.2*** g.

B1: Compound 2 (peptide)
peptide: YXEGTFTSDYSIXLDKIAQKAFVQWLIAGGPSSGAPPPS
modifications: Aib at positions 2 and 13; side chain epsilon-amino group of Lys 20 acylated with Moiety B (U-W-Y-Z with W = -C(O)-C(CH3)2-NH-, i.e. 2-[2-(2-aminoethoxy)ethoxy]acetyl-Aib-gammaGlu-C20 diacid); C-terminal primary amide (Ser-NH2)
Turning to B1, the “Tirzepatide/Compound 2 ratio of half-maximal effective concentrations, cellular cAMP assay” value in test [5] is 0.81 ratio; in test [6] it was 1.68 ratio.
